Data published in patent US20160251332A1, “Herbicidal Compounds” (SYNGENTA PARTICIPATIONS AG, priority 2013, published 2016).

Experiments:
Format in all cases: in vivo
[1] = test system: Setaria faberi; assay: Post-emergence herbicidal activity, SETFA; details: Application post-emergence, 1000 g/Ha, evaluated after 13 days, scale 0-5
Protocol: (§1) Seeds of a variety of test species were sown in standard soil in pots. After 8 days cultivation (post-emergence) under controlled conditions in a glasshouse (at 24/16° C., day/night; 14 hours light; 65% humidity), the plants were sprayed with an aqueous spray solution derived from the formulation of the technical active ingredient in acetone/water (50:50) solution containing 0.5% Tween 20 (polyoxyethelyene sorbitan monolaurate, CAS RN 9005-64-5). The test plants were then grown in a glasshouse under controlled conditions (at 24/16° C., day/night; 14 hours light; 65% humidity) and watered twice daily. After 13 days, the test was evaluated (5=total damage to plant; 0=no damage to plant).

[2] = test system: Amaranthus retroflexus; assay: Post-emergence herbicidal activity, AMARE; details: Application post-emergence, 1000 g/Ha, evaluated after 13 days, scale 0-5
Protocol: as §1

[3] = test system: Abutilon theophrasti; assay: Post-emergence herbicidal activity, ABUTH; details: Application post-emergence, 1000 g/Ha, evaluated after 13 days, scale 0-5
Protocol: as §1

[4] = test system: Zea mays; assay: Pre-emergence herbicidal activity, ZEAMX; details: Application pre-emergence, 1000 g/Ha, evaluated after 13 days, scale 0-5
Protocol: as §1, with “After” for “After 8 days”, “for one day (pre-emergence)” for “(post-emergence)”

[5] = test system: Echinochloa crus-galli; assay: Pre-emergence herbicidal activity, ECHCG; details: Application pre-emergence, 1000 g/Ha, evaluated after 13 days, scale 0-5
Protocol: as §1, with “After” for “After 8 days”, “for one day (pre-emergence)” for “(post-emergence)”

[6] = test system: Abutilon theophrasti; assay: Pre-emergence herbicidal activity, ABUTH; details: Application pre-emergence, 1000 g/Ha, evaluated after 13 days, scale 0-5
Protocol: as §1, with “After” for “After 8 days”, “for one day (pre-emergence)” for “(post-emergence)”

[7] = test system: Echinochloa crus-galli; assay: Post-emergence herbicidal activity, ECHCG; details: Application post-emergence, 1000 g/Ha, evaluated after 13 days, scale 0-5
Protocol: as §1

[8] = test system: Setaria faberi; assay: Pre-emergence herbicidal activity, SETFA; details: Application pre-emergence, 1000 g/Ha, evaluated after 13 days, scale 0-5
Protocol: as §1, with “After” for “After 8 days”, “for one day (pre-emergence)” for “(post-emergence)”

[9] = test system: Amaranthus retroflexus; assay: Pre-emergence herbicidal activity, AMARE; details: Application pre-emergence, 1000 g/Ha, evaluated after 13 days, scale 0-5
Protocol: as §1, with “After” for “After 8 days”, “for one day (pre-emergence)” for “(post-emergence)”

[10] = test system: Zea mays; assay: Post-emergence herbicidal activity, ZEAMX; details: Application post-emergence, 1000 g/Ha, evaluated after 13 days, scale 0-5
Protocol: as §1

SMILES | SETFA damage score [1] | AMARE damage score [2] | ABUTH damage score [3] | ZEAMX damage score [4] | ECHCG damage score [5] | ABUTH damage score [6] | ECHCG damage score [7] | SETFA damage score [8] | AMARE damage score [9] | ZEAMX damage score [10]
CN1CC(O)N(c2cc(C(F)(F)C(F)(F)F)ccn2)C1=O (centres unmarked) [Compound A48] | 5 | 5 | 5 | 2 | 4 | 5 | 5 | 5 | 5 | 3
CN1CC(O)N(c2cc(C(F)F)c(Cl)cn2)C1=O (centres unmarked) [Compound A47] |  |  |  | 0 | 4 | 4 | 4 | 4 | 4 | 
CN1CC(O)N(c2cc(C(F)(F)F)c(-c3ccc(N4CCOCC4)nc3)cn2)C1=O (centres unmarked) [Compound A31] | 5 | 5 | 5 | 0 | 0 | 2 | 4 | 2 | 2 | 2
COCCOCc1cnc(N2C(=O)N(C)CC2O)cc1C(F)(F)F (centres unmarked) [Compound A52] | 5 | 5 | 5 | 4 | 5 | 5 | 5 | 5 | 5 | 5
CN1CC(O)N(c2cc(C(F)(F)F)c(-c3cncc(Cl)c3)cn2)C1=O (centres unmarked) [Compound A22] | 5 | 5 | 5 | 3 | 5 | 5 | 5 | 5 | 5 | 5
CN1CC(O)N(c2cc(C(F)(F)F)c(C(=O)NC(C)(C)C)cn2)C1=O (centres unmarked) [Compound A43] | 5 | 5 | 5 | 2 | 5 | 5 | 5 | 5 | 5 | 5
CCOC(=O)c1cncc(-c2cnc(N3C(=O)N(C)CC3O)cc2C(F)(F)F)c1 (centres unmarked) [Compound A34] | 5 | 5 | 5 | 1 | 4 | 5 | 5 | 3 | 5 | 3
CC(=O)Nc1ccccc1-c1cnc(N2C(=O)N(C)CC2O)cc1C(F)(F)F (centres unmarked) [Compound A35] | 4 | 5 | 5 | 1 | 2 | 2 | 4 | 2 | 5 | 1
CN1CC(O)N(c2cc(Cl)c(C(=O)NC(C)(C)C)cn2)C1=O (centres unmarked) [Compound A45] | 5 | 5 | 5 | 3 | 5 | 5 | 5 | 5 | 5 | 5
COC(F)(F)c1ccnc(N2C(=O)N(C)CC2O)c1 (centres unmarked) [Compound A50] | 5 | 5 | 5 | 1 | 1 | 2 | 5 | 2 | 5 | 1
COc1cncc(-c2cnc(N3C(=O)N(C)CC3O)cc2C(F)(F)F)c1 (centres unmarked) [Compound A33] | 5 | 5 | 5 | 2 | 4 | 5 | 5 | 3 | 5 | 4
COc1ccc(-c2cnc(N3C(=O)N(C)CC3O)cc2C(F)(F)F)c(OC)n1 (centres unmarked) [Compound A25] | 5 | 5 | 5 | 2 | 5 | 5 | 5 | 3 | 5 | 2
CN1CC(O)N(c2cc(C(F)(F)F)c(-c3cnn(C)c3)cn2)C1=O (centres unmarked) [Compound A28] | 5 | 5 | 5 | 3 | 5 | 5 | 5 | 4 | 5 | 5
CN1CC(O)N(c2cc(C(F)(F)F)c(-c3ccc(F)nc3)cn2)C1=O (centres unmarked) [Compound A32] | 5 | 5 | 5 | 3 | 5 | 5 | 5 | 5 | 5 | 5
CN1CC(O)N(c2cc(C(F)(F)Cl)ccn2)C1=O (centres unmarked) [Compound A46] |  |  |  | 2 | 4 | 5 | 5 | 5 | 5 | 
COC(C)(C)c1ccnc(N2C(=O)N(C)CC2O)c1 (centres unmarked) [Compound A49] | 5 | 5 | 5 | 2 | 5 | 5 | 5 | 5 | 5 | 3
COc1cc(-c2cnc(N3C(=O)N(C)CC3O)cc2C(F)(F)F)ccn1 (centres unmarked) [Compound A24] | 5 | 5 | 5 | 2 | 5 | 5 | 5 | 5 | 5 | 5
CN1CC(O)N(c2cc(C(F)(F)F)c(-c3ccc(Cl)nc3)cn2)C1=O (centres unmarked) [Compound A21] | 5 | 5 | 5 | 3 | 5 | 5 | 5 | 5 | 5 | 5
CN1CC(O)N(c2cc(C(F)(F)F)c(NC(=O)C(C)(C)C)cn2)C1=O (centres unmarked) [Compound A42] | 5 | 5 | 5 | 3 | 5 | 5 | 5 | 5 | 5 | 5
COCc1cnc(N2C(=O)N(C)CC2O)cc1C(F)(F)F (centres unmarked) [Compound A51] | 5 | 5 | 5 | 3 | 5 | 5 | 5 | 5 | 5 | 3
CN1CC(O)N(c2cc(C(F)(F)F)c(-c3ccncc3C#N)cn2)C1=O (centres unmarked) [Compound A29] | 5 | 5 | 5 | 3 | 5 | 5 | 5 | 5 | 5 | 4
C=Cc1cnc(N2C(=O)N(C)CC2O)cc1C(F)(F)F (centres unmarked) [Compound A41] | 5 | 5 | 5 | 2 | 4 | 4 | 5 | 4 | 5 | 2
